US12053522B2, “Pro-inflammatory and anti-cancer functions of toll-like receptor 4 antagonists” (Children's Medical Center Corporation, priority 2015, dated 2024)

Assays:
Type in all cases: cell-based, mouse
[1] = tested on: DCs; assay: DC viability / survival (7-AAD staining); conditions: up to 72 hours after treatment; ATP and oxPAPC in LPS-treated DCs
Description: It was contemplated that living cells should resist staining with Zombie dye, a stain that labels the cytosol of cells whose plasma membranes have been disrupted. Cells with intact plasma membranes should also retain functional organelles. In contrast, pyroptotic cells should have lost their organelles and should stain strongly for Zombie dye. […] Moreover, not only did oxPAPC not induce pyroptosis, this lipid counteracted the slow acting death pathways activated by LPS in DCs (Zanoni, I. et al. (2009) Nature 460, 264-268). For this experiment, the health of individual cells within the population up to 72 hours after treatment was assessed by flow cytometry, using the viability stain 7-AAD, which detected genomic DNA within cells whose membranes had been permeabilized (Paterson, A. M. et al., (2011) J Immunol 187, 1097-1105).

[2] = tested on: DCs; assay: Pyroptosis / cell death by LDH release; conditions: LPS-primed DCs
Description: In addition to promoting IL-β release, inflammasome activation has been typically associated with the induction of cell death (Aachoui, Y., (2013b). Current opinion in microbiology 16, 319-326). Without wishing to be bound by theory, cell death via non-canonical inflammasomes is believed to depend upon the enzymatic activity of caspase-11, which must cleave at least two proteins, gasdermin d and pannexin-1 (Kayagaki, N. et al., (2015) Nature 526, 666-671; Shi, J. et al., (2015) Nature 526, 660-665; Yang, D. et al., (2015) Immunity 43, 923-932). […] To assess this possibility directly, pyroptosis induction after oxPAPC administration or LPS transfection in LPS-primed DCs was measured. Pyroptosis is characterized by a rapid loss of plasma membrane integrity, which should release cytoplasmic proteins (and organelles) from the cell body. LDH release in the supernatant was used to assess membrane permeabilization of the cell population during pyroptosis. LPS/ATP-treated cells released LDH starting 4 hours after treatment (FIG. 48A); this combination was a well-defined activator of inflammasome-mediated cell death (Aachoui, Y., (2013b). Current opinion in microbiology 16, 319-326). Cells transfected with LPS, independently from LPS priming, died at later time points than cells treated with ATP (FIG. 48A).

[3] = tested on: bone marrow derived DCs; assay: IL-1β release from DCs (ELISA)
Experimental: NLRP3 KO and ASC KO mice were kindly provided by Dr. T. Horng, Harvard School of Public Health. Caspase-11 KO mice were kindly provided by Dr. Junying Yuan, Harvard Medical School. Caspase-1 single KO mice were kindly provided by Thirumala-Devi Kanneganti (St. Judes). DCs were differentiated from bone marrow in IMDM (Gibco), 10% B16-GM-CSF derived supernatant, 2 μM 2-mercaptoethanol and 10% FBS and used after 6 day of culture. […] MO were differentiated from bone marrow in DMEM (Gibco), 30% L929 supernatant, and 10% FBS. Immortal MΦs were cultured in DMEM supplemented with 10% L929 supernatant and 10% FBS. […] For experiments using pan-caspase inhibitor, cells were treated with zVADfmk (20 μM) 30 min before inflammasome activation stimuli addition. Cycloheximide (50 ng/ml) was added at the time of stimuli administration. Transfection with DOTAP was performed following the manufacturer instructions. […] 30 min later, the DOTAP/LPS or DOTAP/oxPAPC complex were added to the culture.
RNA was isolated from cell cultures using Qiashedder (Qiagen) and GeneJET RNA Purification Kit (Life Technologies). Purified RNA was analyzed for gene expression on a CFX384 real time cycler (Bio-rad) using TaqMan RNA-to-CT 1-Step Kit (Applied Biosystems) with probes purchased from Life Technologies specific for viperin (Mm00491265_m1), IFNb1 (Mm00439552_s1), IL6 (Mm00446190_m1), caspase-1 (Mm00438023_m1), caspase-11 (Mm00432307_m1), Nlrp3 (Mm00840904_m1), Asc (Mm00445747_g1), TBP (Mm00446971_m1) or GAPDH (Mm99999915_g1). ELISA for IL-1β, IL-2, IL-17, IL-18, TNFα and IFNγ were performed using Mouse Ready-SET-Go ELISA kits (eBioscience). To measure secreted cytokines, supernatant were collected, clarified by centrifugation and stored at −20° C. Cell associated cytokines were measured as follows: 96-well plates were centrifuged and supernatant was discarded. 250 μl of PBS were added to each well. Cells were frozen and thawed two times at −80° C. and then stored at −20° C. for further analysis.

[4] = tested on: LPS-pretreated DCs; assay: ASC and caspase-1 containing speck formation (immunofluorescence); conditions: ATP 1 mM, oxPAPC 120 μM
Experimental: For live or permeability experiment, MitotTacker CMX-ROS (Life Technologies) or Zombie Red (BioLegend) dyes were used in according to manufacturer's instructions before fixation with 4% paraformaldehyde. After permeabilization step using 0.1% Triton X-100 0.2% BSA-PBS, cells were blocked in 2% BSA-PBS and incubated with rabbit anti-ASC pAb (AL177, Adipogen) and mouse anti-caspase-1 mAb (Casper-1, Adipogen) followed by Alexa Fluor 488-conjugated chicken anti-rabbit IgG (Life Technologies) and Alexa Fluor 568-conjugated goat anti-mouse IgG (Life Technologies) diluted in blocking buffer. Nuclei were counterstained with DAPI (Life Technologies) or DRAQ5 (BioLegend). A Zeiss Axiovert 200M confocal microscope or an Olympus BX41 fluorescence microscope was used to acquire images.

[5] = tested on: primary bone marrow-derived MΦs; assay: IL-1β release from macrophages (ELISA)
Description: (§1) C57BL/6J (Jax 000664), C57BL/6NJ (Jax 005304), CD14 KO (Jax 003726), caspase-1/-11 dKO mice (Jax 016621), TLR4-mutant (C3H/HeJ, Jax 000659), and wild-type control for TLR4-mutant (C3H/HeSNJ, Jax 000661) were purchased from Jackson Labs. NLRP3 KO and ASC KO mice were kindly provided by Dr. T. Horng, Harvard School of Public Health. Caspase-11 KO mice were kindly provided by Dr. Junying Yuan, Harvard Medical School. Caspase-1 single KO mice were kindly provided by Thirumala-Devi Kanneganti (St. Judes). DCs were differentiated from bone marrow in IMDM (Gibco), 10% B16-GM-CSF derived supernatant, 2 μM 2-mercaptoethanol and 10% FBS and used after 6 day of culture. DC purity was assessed by flow cytometry and was usually higher than 90%. […]
RNA was isolated from cell cultures using Qiashedder (Qiagen) and GeneJET RNA Purification Kit (Life Technologies). Purified RNA was analyzed for gene expression on a CFX384 real time cycler (Bio-rad) using TaqMan RNA-to-CT 1-Step Kit (Applied Biosystems) with probes purchased from Life Technologies specific for viperin (Mm00491265_m1), IFNb1 (Mm00439552_s1), IL6 (Mm00446190_m1), caspase-1 (Mm00438023_m1), caspase-11 (Mm00432307_m1), Nlrp3 (Mm00840904_m1), Asc (Mm00445747_g1), TBP (Mm00446971_m1) or GAPDH (Mm99999915_g1). ELISA for IL-1β, IL-2, IL-17, IL-18, TNFα and IFNγ were performed using Mouse Ready-SET-Go ELISA kits (eBioscience). […]

[6] = tested on: DCs; assay: TNFα secretion from DCs (ELISA); conditions: WT and caspase-11 KO DCs
Description: as §1, with “90%. MO were differentiated from bone marrow in DMEM (Gibco), 30% L929 supernatant, and 10% FBS. Immortal MΦs were cultured in DMEM supplemented with 10% L929 supernatant and 10% FBS. Splenic DCs were purified as described previously (Zanoni et al., 2012). Prior to stimulations, cultured cells were washed and re-plated in DMEM supplemented with 10% FBS at a concentration of 1×10^6 cells/ml in a final volume of 100 μl. For experiments using pan-caspase inhibitor, cells were treated with zVADfmk (20 μM) 30 min before inflammasome activation stimuli addition.” for “90%.”
RNA was isolated from cell cultures using Qiashedder (Qiagen) and GeneJET RNA Purification Kit (Life Technologies). Purified RNA was analyzed for gene expression on a CFX384 real time cycler (Bio-rad) using TaqMan RNA-to-CT 1-Step Kit (Applied Biosystems) with probes purchased from Life Technologies specific for viperin (Mm00491265_m1), IFNb1 (Mm00439552_s1), IL6 (Mm00446190_m1), caspase-1 (Mm00438023_m1), caspase-11 (Mm00432307_m1), Nlrp3 (Mm00840904_m1), Asc (Mm00445747_g1), TBP (Mm00446971_m1) or GAPDH (Mm99999915_g1). ELISA for IL-1β, IL-2, IL-17, IL-18, TNFα and IFNγ were performed using Mouse Ready-SET-Go ELISA kits (eBioscience). […] Cell associated cytokines were measured as follows: 96-well plates were centrifuged and supernatant was discarded. […]

[7] = tested on: DCs; assay: Single cell viability assay of inflammasome-containing cells (Zombie dye, active mitochondria); conditions: LPS-pretreated DCs
Experimental: BMDCs cells were treated with LPS (1 μg/mL) for 3 hours before inflammasome-inducing stimuli challenge. For live or permeability experiment, MitotTacker CMX-ROS (Life Technologies) or Zombie Red (BioLegend) dyes were used in according to manufacturer's instructions before fixation with 4% paraformaldehyde. After permeabilization step using 0.1% Triton X-100 0.2% BSA-PBS, cells were blocked in 2% BSA-PBS and incubated with rabbit anti-ASC pAb (AL177, Adipogen) and mouse anti-caspase-1 mAb (Casper-1, Adipogen) followed by Alexa Fluor 488-conjugated chicken anti-rabbit IgG (Life Technologies) and Alexa Fluor 568-conjugated goat anti-mouse IgG (Life Technologies) diluted in blocking buffer. Nuclei were counterstained with DAPI (Life Technologies) or DRAQ5 (BioLegend). A Zeiss Axiovert 200M confocal microscope or an Olympus BX41 fluorescence microscope was used to acquire images.

formation of ASC and caspase-1-containing specks [4]: induced the formation
Structure (SMILES): Nc1ncnc2c1ncn2[C@@H]1O[C@H](COP(=O)(O)OP(=O)(O)OP(=O)(O)O)[C@@H](O)[C@H]1O [ATP]
DC viability (7-AAD) [1]: diminished DC viability
time from which LDH was released [2]: ≥ 4 h
IL-1β release ([3]; BMDCs lacking caspase-1/-11 or ASC): completely lost
IL-1β release ([3]; LPS-primed DCs): elicit IL-1β release from DCs in a dose-dependent manner
IL-1β release ([3]; LPS-primed caspase-11 KO DCs): remained intact
cell-associated IL-1β levels ([3]; LPS-primed, compared with LPS alone): similar
IL-1β release ([3]; NLRP3-deficient BMDCs): NLRP3 dependent
IL-1β release ([3]; Pam3CSK-primed caspase-11 KO cells): remained intact
IL-1β release [5]: promoted the efficient release of IL-1β
TNFα secretion [6]: not affected
mitochondria and Zombie dye staining of cells containing ASC specks [7]: lost mitochondria and stained positive for Zombie dye
